Source: patent US12329852B2, “Sustained-release 9-cis retinoic acid implantable drug delivery pellets for the prevention of postsurgical edema and lymphedema” (UNIVERSITY OF SOUTHERN CALIFORNIA, priority 2019, dated 2025)
“Also recorded” adds a separate entry of the source.

Columns and labels:
[1] = tested on: postsurgical lymphedema; details: daily intraperitoneal injections 0.08 mg/kg; earlier work [13]; cited from earlier work
[2] = tested on: tail lymphedema; experiment: Mouse tail secondary lymphedema model, tail volume (intraperitoneal injection); assay type: in vivo, BALB/c mice
Protocol: All experiments were performed in accordance with the The Guide for the Care and Use of Laboratory Animals (National Research Council, 8th ed, 2011) and the Animal Welfare Act. Our protocol was approved by the University of Southern California Institutional Animal Care and Use Committee. Fifty adult BALB/c mice, 12 to 14 weeks old, weighing between 21 and 30 g were purchased from Jackson Laboratories (Jackson, Bar Harbor, ME). Animals were maintained in a temperature and light-controlled environment with ad libitum access to a normal chow diet and water.
A previously well described tail model to induce lymphedema was modified in the present experiments. Mice were anesthetized using 2.5% isofluorane, and a 5-mm wide circumferential skin excision was made 20-mm from the base of the tail. Underlying lymphatic vessels were visualized using isosulfan blue and ligated under a dissecting surgical microscope. Daily bacitracin antibiotic ointment was applied to the surgical site to prevent wound infection and desiccation.
Animals were randomly assigned to one of five groups following surgery: control, 7 days, 14 days, 45 days, and delay. Mice received daily intraperitoneal injections of either 100 μL vehicle solution (90 μL sunflower seed oil/10 μL 100% ethanol) or 0.08 mg/kg 9-cis RA dissolved in 100 μL of vehicle solution [5]. The treatment administered to each group was: (1) control: vehicle for 45 days following surgery, (2) 7 day: 9-cis RA for 7 days, (3) 14 day: 9-cis RA for 14 days, (4) 45 day: 9-cis RA for 45 days, and (5) delay: 9-cis RA for 7 days beginning one week after surgery. Animals with necrotic tails or that developed surgical site infections were sacrificed and excluded from analysis.
Animals were photographed every five days for a 6-week duration, and tail diameter was measured using ImageJ (National Institutes of Health, Bethesda, MD). Measurements were taken at 5-mm intervals from the distal-most edge of the wound for a total of seven measurements per animal for every time point. Total distal tail volume was calculated using the truncated cone formula [8]. Percent change in distal tail volume was recorded, analyzed, and plotted using GraphPad Prism 7 (GraphPad Software, Inc.).

[3] = tested on: lymphatic vessels of uninjured ears; experiment: Lymphatic analysis of uninjured ears, LYVE-1 whole mount; assay type: in vivo, BALB/c mice; details: 0.08 mg/kg daily i.p., any duration
Protocol: Bilateral ears of animals were harvested simultaneously with the diaphragm, removed of all hair using depilatory cream and fixed in 4% paraformaldehyde. The ears were then split between the inner and outer layers under a dissecting microscope and the cartilage removed prior to immunoflourescence staining. The whole mounted specimens were subsequently stained with anti-LYVE-1 and anti-CD-31 antibodies after washing with PBS, permeabilizing with 0.5% Triton X-100 (Sigma-Aldrich, USA), and incubated with the primary antibody (1:500) overnight. Green secondary antibodies (1:200 donkey anti-rabbit Alexa Fluor 488, Thermo Fisher Scientific, Canoga Park, CA) were used to stain for LYVE-1.
Slides were counterstained with hematoxylin and mounted. All images were obtained with a Keyence BZ-X700 microscope (Itasca, IL) and epidermal and dermal thickness was measured using ImageJ (National Institutes of Health, Betheseda, MD). The thickest part of the epidermis and dermis was measured in 5 high-power fields per section, as previously described. On the immunohistochemically stained slides, podoplanin stained vessels in the dermis and subcutis were quantified in ImageJ. Two high-power fields per section were randomly selected and then analyzed by a blinded reviewer. The reviewer scored the number of podoplanin stained vessels and the area (mm^2) of the dermis and subcutaneous tissue in each image. […]

[4] = tested on: tail lymphedema; experiment: Dermal and epidermal thickness, H&E stained tails; assay type: in vivo, BALB/c mice; details: 0.08 mg/kg daily i.p.; for mean epidermal tail thickness / dermal thickness: mean±standard error
Protocol: Tail specimens were collected on post-operative day 47. Specimens were harvested to include 1 cm proximal and 1 cm distal the wound, then divided to separate proximal and distal portions. Tails were inked to enable proper orientation, fixed in 10% neutral buffered formalin overnight, decalcified in 10% EDTA (pH: 7.3) for 6 days at 4° C., embedded in paraffin, sectioned at 3-5 μm, then stained with hematoxylin and eosin (H&E) or via immunohistochemical techniques. In summary, sections were deparaffinized, underwent antigen retrieval with sodium citrate buffer, incubated overnight with the primary antibody (1:200) at 4° C., washed, incubated with a suitable secondary antibody (1:200), then stained with immPACT DAB Substrate (Vector Laboratories, Inc, Burlingame, CA) and counterstained with Delafield Hematoxylin (Sigma-Aldrich, USA) diluted 1:4. Podoplanin (clone 8.1.1; sc-53533, Santa Cruz Biotechnology, Inc., Dallas, TX) was used to immunohistochemically mark lymphatics in paraffin embedded tail sections.
Slides were counterstained with hematoxylin and mounted. All images were obtained with a Keyence BZ-X700 microscope (Itasca, IL) and epidermal and dermal thickness was measured using ImageJ (National Institutes of Health, Betheseda, MD). The thickest part of the epidermis and dermis was measured in 5 high-power fields per section, as previously described. On the immunohistochemically stained slides, podoplanin stained vessels in the dermis and subcutis were quantified in ImageJ. Two high-power fields per section were randomly selected and then analyzed by a blinded reviewer. The reviewer scored the number of podoplanin stained vessels and the area (mm^2) of the dermis and subcutaneous tissue in each image. Lymphatic vessel density was calculated from the absolute lymphatic number normalized to the dermal and subcutaneous area measured (number of lymphatics/mm^2).^2 For the immunofluorescent stained slides, LYVE-1 stained vessels were quantified with ImageJ, to assess included lymphatic density, lymphatic vessel width, inter-lymphatic vessel distance, branching points, loops and blind-ended sacs.

[5] = tested on: tail lymphedema; experiment: Indocyanine green lymphangiography of tail (intraperitoneal injection); assay type: in vivo, BALB/c mice; details: day 45; for ICG fluorescent intensity compared to control: 48 hours after injection
Protocol: On Day 45, animals were anesthetized using 2.5% isofluorane, and 5 μL of 2.5 mg/mL indocyanine green (ICG) was injected into the distal end of each animal's tail 15 minutes prior to imaging. The SPY Elite Fluorescence Imaging System (Novadaq Technologies, BC, Canada) was used to capture fluorescent images and heat maps of the tails at 0, 1, 2, 3, 6, 12, 24, and 48 hours following ICG injection. Capture conditions were kept constant throughout the trial. Fluorescent intensity of the tails at each time point was quantified using a previously described method for measuring cell fluorescence in ImageJ [4, 7]. Values were then recorded and plotted using GraphPad Prism 7. Percent change in fluorescent intensity from the peak fluorescent uptake at 6 hours was used to measure ICG clearance.

CC1=C(/C=C/C(C)=C\C=C\C(C)=C\C(=O)O)C(C)(C)CCC1 [9-cis RA, 9-cis retinoic acid]
prevention of postsurgical lymphedema [1]: significantly prevents development of lymphedema; also recorded: prevents postsurgical lymphedema | tail volume compared to control ([2]; 0.08 mg/kg daily i.p. for 7 days): approached tail volumes similar to the lymphedematous control group past the 4-week time point; also recorded: no significant effect on tail lymphedema or dermal thickening | tail volume compared to control ([2]; 0.08 mg/kg daily i.p. for 7 days beginning one week after surgery (delay group)): statistically significant decrease in tail volumes from day-14 onwards; also recorded: decreased tail volume | tail volume compared to control ([2]; 0.08 mg/kg daily i.p. for 14 days): approached tail volumes similar to the lymphedematous control group past the 4-week time point; also recorded: no significant difference in tail volume | tail volume compared to control ([2]; 0.08 mg/kg daily i.p., continuous (45-day/42-day group)): significantly smaller than the lymphedematous controls | number of branch points, blind-ended sacs, loops, total length, density of lymphatic vessels in uninjured ears vs vehicle control [3]: no significant difference | dermal thickening compared to control ([4]; 7-day group): no significant effect on tail lymphedema or dermal thickening | mean epidermal tail thickness ([4]; 7-day group): 109.2±10.21 μm | dermal thickness ([4]; 14-day group): 352.4±21.29 μm | mean epidermal tail thickness ([4]; 14-day group): 52.07±2.616 μm | dermal thickness ([4]; 45-day group): 525.2±25.09 μm | mean epidermal tail thickness ([4]; 45-day group): 83.14±8.099 μm | dermal thickness ([4]; delay group): 502±30.17 μm | mean epidermal tail thickness ([4]; delay group): 73.51±10.94 μm | percent change of ICG fluorescent intensity compared to control ([5]; 24 hours after ICG injection, all treatment groups): significant decrease in the percent change of fluorescent intensity compared to the control | ICG fluorescent intensity compared to control ([5]; 7-day group): no longer significant from the control | ICG fluorescent intensity compared to control ([5]; 14-day, 42-day and 7-day delayed groups): significant decrease in fluorescent intensity
